In the supplement of paper PMC10307832:

Legend:
Experiment in all cases: relative viability (nuclei count vs DMSO), 5 days (fraction); higher = more cells survive
[1] = compound: C1CC(C1)(C(=O)O)C(=O)O.[NH2-].[NH2-].[Pt+2] [Carboplatin] + Cc1cc(Nc2cc(N3CCN(C)CC3)nc(Sc3ccc(NC(=O)C4CC4)cc3)n2)n[nH]1 [Tozasertib] (partner 0.1 µM)
Procedure, shortened: (§1)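 Relative viability divides the nuclei count in treated wells by that in vehicle wells. Lung cancer cell lines were seeded in 1536-well plates, dosed by pin tool the next day, and fixed and stained after 5 days in one step with final 0.05% Triton X-100, 1% formaldehyde and 1 ug/ml Hoechst. Dosing was a single drug or a fixed anchor-drug dose plus five library-drug doses (not always all listed) in √10 steps, and values are medians of duplicate plates imaged at 4×.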

[2] = compound: CC[C@H](C)N1C=C(C2=C(C=C(C=C21)C3=CN=C(C=C3)N4CCNCC4)C(=O)NCC5=C(C=C(NC5=O)C)C)C [GSK126] + COc1cccc2cc(-c3nc([C@H]4CC[C@H](C(=O)O)CC4)n4ncnc(N)c34)[nH]c12 [OSI-027] (partner 0.5 µM)
Procedure, shortened: as §1

[3] = compound: NS(=O)(=O)OC[C@@H]1C[C@@H](n2ccc3c(N[C@H]4CCc5ccccc54)ncnc32)C[C@@H]1O [MLN4924] + CS(=O)(=O)N1CCN(Cc2cc3nc(-c4cccc5[nH]ncc45)nc(N4CCOCC4)c3s2)CC1 [Pictilisib] (partner 1 µM)
Procedure, shortened: as §1

[4] = compound: NS(=O)(=O)OC[C@@H]1C[C@@H](n2ccc3c(N[C@H]4CCc5ccccc54)ncnc32)C[C@@H]1O [MLN4924] + O=C(CCCCCCC(=O)Nc1ccccc1)NO [Vorinostat] (partner 1 µM)
Procedure, shortened: as §1

Cell Line	relative viability ([1]; first compound 0.08 µM)	relative viability ([1]; first compound 0.253 µM)	relative viability ([1]; first compound 0.8 µM)	relative viability ([1]; first compound 2.53 µM)	relative viability ([1]; first compound 8 µM)	relative viability ([2]; first compound 0.08 µM)	relative viability ([2]; first compound 0.253 µM)	relative viability ([2]; first compound 0.8 µM)	relative viability ([2]; first compound 2.53 µM)	relative viability ([2]; first compound 8 µM)	relative viability ([3]; first compound 0.04 µM)	relative viability ([3]; first compound 0.1265 µM)	relative viability ([3]; first compound 0.4 µM)	relative viability ([3]; first compound 1.265 µM)	relative viability ([3]; first compound 4 µM)	relative viability ([4]; first compound 0.04 µM)	relative viability ([4]; first compound 0.1265 µM)	relative viability ([4]; first compound 0.4 µM)	relative viability ([4]; first compound 1.265 µM)	relative viability ([4]; first compound 4 µM)
201T	0.988	0.933	0.985	0.942	0.89	0.822	0.772	0.736	0.865	0.759	0.783	0.837	0.833	0.425	0.366	0.991	0.898	0.406	0.277	0.17
A549											0.5	0.474	0.246	0.0557	0.0729					
A-427	0.188	0.237	0.238	0.219	0.221	0.491	0.515	0.43	0.409	0.456	0.66	0.406	0.284	0.179	0.222	0.546	0.403	0.309	0.231	0.237
ABC-1	0.208	0.201	0.164	0.186	0.207	0.462	0.525	0.532	0.492	0.539	0.677	0.809	0.372	0.188	0.374	0.946	1.15	0.572	0.279	0.363
BEN	0.588	0.633	0.469	0.486	0.433	0.324	0.349	0.281	0.288	0.287	0.566	0.398	0.254	0.163	0.155	0.434	0.463	0.431	0.268	0.238
CAL-12T	0.338	0.289	0.329	0.413	0.382	0.78	0.576	0.767	0.67	0.819		0.41	0.299	0.237	0.156	0.792	0.921	0.409	0.259	0.144
COR-L23	0.237	0.217	0.186	0.144	0.148	1	0.725	0.645	0.824	0.694	0.711	0.71	0.159	0.104	0.0964	0.414	0.34	0.195	0.0783	0.0885
COR-L 105	0.37	0.337	0.348	0.359	0.345	0.694	0.666	0.616	0.72	0.771	0.427	0.455	0.399	0.268	0.274	0.71	0.709	0.353	0.232	0.403
Calu-6											1.08	0.707	0.238	0.108	0.135					
ChaGo-K-1	0.231	0.224	0.215	0.213	0.192	0.609	0.611	0.562	0.545	0.544	0.515	0.434	0.369	0.258	0.272	0.681	0.593	0.299	0.167	0.174
EBC-1											0.488	0.372	0.245	0.11	0.162					
EKVX	0.439	0.371		0.381	0.38	0.753	0.679	0.669	0.822	0.781	0.533	0.513	0.363	0.135	0.135	0.632	0.276	0.41	0.201	0.217
EMC-BAC-2	0.313	0.292	0.275	0.266	0.326	0.398	0.381	0.397	0.379	0.373	0.242	0.569	0.213	0.155	0.192	0.39	0.392	0.236	0.179	0.279
EPLC-272H	0.314	0.387	0.181	0.289	0.291	0.295	0.309	0.318	0.353	0.303	0.119	0.246	0.0811	0.135	0.135	0.195	0.184	0.098	0.0963	0.144
H3255	0.829	0.603	0.577	0.52	0.525	0.573	0.568	0.578	0.666	0.583	0.453	0.382	0.317	0.203	0.217	0.668	0.642	0.334	0.239	0.304
HARA	0.146	0.122	0.09	0.11	0.11	0.543	0.541	0.476	0.466	0.392	0.552	0.388	0.184	0.0759	0.0734	0.48	0.144	0.174	0.0809	0.0682
HCC-15	0.48	0.553	0.34	0.342	0.303	0.752	0.687	0.696	0.713	0.695	0.475	0.343	0.172	0.0896	0.107	0.643	0.444	0.289	0.112	0.106
HCC-44	1.14	0.949	0.803	0.603	0.517	0.623	0.624	0.595	0.562	0.706	0.641	0.474	0.0983	0.0904	0.127	1.04	0.731	0.726	0.415	0.376
